Data from patent US12715851B2, “4′-substituted analogues of fisetin and their use in the treatment of cancer” (Stellenbosch University, priority 2020, dated 2026).
Entries after “also recorded” stand apart in the source; their conditions may differ.

How the values were obtained:
[1] = tested on: H1299 lung cancer cells; assay: Cytotoxicity / cell viability of H1299 cells; format: cell-based, human; conditions: 4′-Br analogues
Excerpt: Analogues were also synthesised to all contain Br in the B-ring 4′-position, and in which the A-ring substitution pattern alone was varied. […] Based on the strong activity of analogue 3c, it was selected together with analogues 3a and 3e for further mechanistic evaluation in lung cancer cells.

[2] = tested on: A549 lung cancer cell line; assay: MTT cell proliferation assay, cytotoxicity after 48 h treatment; format: cell-based, human; conditions: for variation in cytotoxicity with A-ring substitution: A549, 4′-Br analogues; for activity against lung cancer cell lines compared with the parent Fisetin: A549 and/or H1299
Description: These 4′-substituted Fisetin analogues were initially screened for cytotoxicity against the A549 lung cancer cell line following a 48 h treatment period. Cytotoxicity IC50's were quantified using the MTT cell proliferation assay. The compounds were not found to interfere with the assay by causing an increase in background absorbance, no correlation was found between the lipophilicity and cytotoxicity at this position, and the substituent size was also not found to be important.

[3] = tested on: H1299 cancer cells; assay: Apoptosis assay; format: cell-based, human; conditions: 48 h
Excerpt: [Worded in the source for another cell line; used here, by the source, with some conditions changed.] (§1) In A549, analogue 3a induced 8.2 and 11.2% apoptosis, analogue 3c induced 13.4 and 17.2% apoptosis, and analogue 3e induced 10.6 to 19.5% apoptosis compared to 4.7% in control cells (FIG. 6A).

[4] = tested on: A549; assay: Apoptosis assay; format: cell-based, human; conditions: 48 h, control cells 4.7%
Excerpt: as §1

[5] = tested on: H1299 human lung cancer cells; assay: Cell cycle distribution, propidium iodide flow cytometry; format: cell-based; conditions: 48 h; for G2/M phase arrest: H1299
Description: (§2) To examine the effect of Fisetin analogues on cell cycle regulation, cells were treated with different concentrations of Fisetin analogues (5, 10 & 20 μM) for 48 h, then stained with propidium iodide and subjected to flow cytometry. All three of the tested Fisetin analogues induced G2/M phase cell cycle arrest in A549 (FIGS. 5A-5C) and H1299 human lung cancer cells (FIGS. 5D-5F).

[6] = tested on: H1299 cells; assay: Western blot of signalling, cell cycle and apoptosis markers; format: cell-based, human
Excerpt: (§3) Similarly, in H1299 cells analogue 3a induced a 11.7 to 14.9% cell death (FIG. 4D right) compared to 3.8% in control cells. Analogue 3c (FIG. 4E right) and analogue 3e (FIG. 4F right) induced cell death of 8.2 to 15.1% and 8.8 to 16.6% respectively. For western blot experiments, two concentrations were used, i.e. the IC50 concentration and the next higher concentration utilized for cell proliferation for each cell line.
In H1299 cells (FIG. 4H), the higher concentrations of all three Fisetin analogues decreased the expression of pErk1/2. […]
The decreased expression of these proteins explains the decreased cell proliferation in both A549 and H1299 cells. […] Consistent with A549 data, all three the Fisetin analogues decreased the expression of anti-apoptotic protein Bcl-2 at both the concentrations. In H1299 cells, all the analogues increased cleaved Caspase-3 compared to control untreated cells. Thus, modulation of apoptosis regulatory proteins has caused apoptosis in both A549 and H1299 cells by the tested Fisetin analogues.

[7] = tested on: A549 cells; assay: Trypan blue cell exclusion assay, cell proliferation and death; format: cell-based; conditions: Homo sapiens, A549, 48 h, read-out: IC50 concentration
Description: (§4) To evaluate the effect of Fisetin analogues 3a, 3c and 3e on cell proliferation and death of human lung cancer cells, trypan blue cell exclusion assays were performed. A549 and H1299 cancer cells were treated with different concentrations of three selected Fisetin analogues for 48 h. The Fisetin analogues decreased the viability of cells and caused cell death in both the cell lines in a concentration dependent fashion. A549 and H1299 cells were treated with 5, 10 and 20 μM of Fisetin analogues for 48 h. All three analogues decreased cell proliferation and induced cell death.

[8] = tested on: H1299 lung cancer cells; assay: as above; format: cell-based; conditions: Homo sapiens, NCI-H1299, H1299, 48 h, read-out: IC50 concentration
Description: as §4

[9] = tested on: A549 cells; assay: Western blot of signalling, cell cycle and apoptosis markers; format: cell-based, human; conditions: IC50 concentration and 20 μM
Excerpt: as §3
The expression of pro-oncogenic signalling molecules, which are involved in proliferation and survival of cancer cells, were evaluated.
The effect of the Fisetin analogues on molecular markers of apoptosis was assessed.

[10] = tested on: A549; assay: Cell cycle distribution, propidium iodide flow cytometry; format: cell-based, human; conditions: 10 & 20 μM, 48 h
Description: as §2

[11] = cited from earlier work

For COCOc1ccc2oc(-c3ccc(Br)cc3)c(O)c(=O)c2c1 [analogue 3d, 4′-Bromo-3-hydroxy-6-methoxymethoxyflavone], the “variation in cytotoxicity with A-ring substitution” value (shortened to “variation in cytotoxicity”) [1] was “little variation in cytotoxicity” and the “variation in cytotoxicity” value [2] was “little variation in cytotoxicity”.

With O=c1c(O)c(-c2ccc(C(F)(F)F)cc2)oc2cc(O)ccc12 [analogue 3n, 4′-Trifluoromethyl-3,7-dihydroxyflavone] the “cytotoxicity, in words” value ([2]; A549, MTT, 48 h) was “particularly active” and the “activity against lung cancer cell lines compared with the parent Fisetin” value (shortened to “activity … compared with the parent Fisetin”) [2] was “substantially more active”.

In the case of O=c1c(O)c(-c2ccc(Br)cc2)oc2ccc(O)cc12 [analogue 3e, 4′-Bromo-3,6-dihydroxyflavone], the “variation in cytotoxicity” value [1] is reported as “little variation in cytotoxicity”, the apoptosis ([3]; IC50 concentration) is reported as 12.1% and the apoptosis ([3]; higher concentration 10 μM) is reported as 19.5%. The apoptosis ([4]; IC50 concentration) was 10.6%, the apoptosis ([4]; higher concentration 20 μM) was 19.5% and the S-phase arrest ([5]; 20 μM, cell line not given) was “induced S-phase arrest”. For the same compound, the G2/M phase arrest ([5]; 5 μM) was “induced G2/M phase arrest”, the G2/M phase arrest ([5]; 10 & 20 μM) was “induced G2/M phase arrest in both the cell lines significantly” and the Phospho-Cdc-2 expression ([6]; IC50 concentration and 10 μM) was “both concentrations of analogue 3e decreased the expression of phospho-Cdc-2”. The “Total Cdc-2” value ([6]; IC50 concentration and 10 μM) was “no effect”, the “expression of Bax” value ([6]; IC50 concentration and 10 μM) was “increased the expression of pro-apoptotic protein Bax” and the “expression of phospho Akt” value ([6]; IC50 concentration and 10 μM) was “significantly decrease the phospho Akt”. For the same compound, the “expression of phospho-EGFR” value ([6]; IC50 concentration and 10 μM) was “significantly decreased the expression of phospho-EGFR”, the “expression of total Akt” value ([6]; IC50 concentration and 10 μM) was “did not affect the total Akt” and the “expression of total EGFR” value ([6]; IC50 concentration and 10 μM) was “did not affect the expression levels of total EGFR”. The “expression of total Erk1/2” value ([6]; IC50 concentration and 10 μM) was “decreased the expression of total Erk1/2 significantly”, the “expression of total Stat-3” value ([6]; higher concentration (10 μM)) was “decreased the expression of total Stat-3 at higher concentrations” and the IC50 [7] was 12.3 µM. For the same compound, the IC50 [8] was 3.1 µM, the “cleaved caspase-3” value [9] was “both the concentrations of analogue 3e increased the cleaved caspase-3 marginally” and the “expression of p21” value [9] was “increased the p21 expression to a much higher level at both the concentrations”. The “expression of phospho Cdc-2” value [9] was “IC50 concentration decreased the expression to some extent; also recorded: the higher concentrations decreased the phospho-Cdc-2 expression significantly”, the “expression of phospho-Erk1/2” value [9] was “decreased the expression of phospho-Erk1/2 significantly at both the concentrations” and the “expression of phospho-Stat-3” value [9] was “completely abolished the expression of p-Stat-3”. The “expression of pro-apoptotic protein Bax” value [9] was “increased the expression of Bax with much higher potential”, the “total Stat-3 expression” value [9] was “significantly decreased the expression of total Stat-3” and the “total form of Akt” value [9] was “decreased the expression of total Akt at both the concentrations”. The “total form of Erk1/2” value [9] was “not affected”, the G2/M phase arrest [10] was “induced G2/M phase arrest in both the cell lines significantly” and the “variation in cytotoxicity” value [2] was “little variation in cytotoxicity”.

Work on O=c1c(O)c(-c2ccc(Br)cc2)oc2ccccc12 [analogue 3a, 4′-Bromo-3-hydroxyflavone] yielded an apoptosis ([3]; IC50 concentration) of 13.2%, an apoptosis ([3]; higher concentration 10 μM) of 17.8% and an apoptosis ([4]; IC50 concentration) of 8.2%. The apoptosis ([4]; higher concentration 20 μM) was 11.2%, the G2/M phase arrest ([5]; 10 & 20 μM) was “induced G2/M phase arrest in both the cell lines significantly” and the Phospho-Cdc-2 expression ([6]; IC50 concentration and 10 μM) was “marginally decreased”. The “Total Cdc-2” value ([6]; IC50 concentration and 10 μM) was “marginally affected by higher concentration”, the “expression of Bax” value ([6]; IC50 concentration and 10 μM) was “slightly higher” and the “expression of phospho Akt” value ([6]; IC50 concentration and 10 μM) was “did not affect the expression of phospho and total Akt at both the concentrations”. The “expression of phospho-EGFR” value ([6]; IC50 concentration and 10 μM) was “lower concentration of analogue 3a did not affect the expression of both phospho and total EGFR; also recorded: higher concentration of analogue 3a significantly decreased the expression of both phospho and total EGFR”, the “expression of total Akt” value ([6]; IC50 concentration and 10 μM) was “did not affect the expression of phospho and total Akt at both the concentrations” and the “expression of total EGFR” value ([6]; IC50 concentration and 10 μM) was “lower concentration of analogue 3a did not affect the expression of both phospho and total EGFR; also recorded: higher concentration of analogue 3a significantly decreased the expression of both phospho and total EGFR”. For the same compound, the IC50 [7] was 11.9 µM, the IC50 [8] was 4.5 µM and the “cleaved caspase-3” value [9] was “increased the cleavage of caspase-3 significantly”. For the same compound, the “expression of p21” value [9] was “increased the expression of p21 marginally at both the concentrations”, the “expression of phospho Cdc-2” value [9] was “slightly decreased the phospho form of Cdc-2 at higher concentration” and the “expression of phospho-Erk1/2” value [9] was “decreased the expression of phospho-Erk1/2 significantly at both the concentrations”. The “expression of pro-apoptotic protein Bax” value [9] was “slightly increased the expression of pro-apoptotic protein Bax”, the “total Stat-3 expression” value [9] was “not affected” and the “total form of Akt” value [9] was “slightly downregulated”. For the same compound, the “total form of Erk1/2” value [9] was “not affected” and the G2/M phase arrest [10] was “induced G2/M phase arrest in both the cell lines significantly”.

In the case of COCOc1ccc2c(=O)c(O)c(-c3ccc(Br)cc3)oc2c1 [analogue 3b, 4′-Bromo-3-hydroxy-7-methoxymethoxyflavone], the “variation in cytotoxicity” value [1] is reported as “little variation in cytotoxicity” and the “variation in cytotoxicity” value [2] is reported as “little variation in cytotoxicity”.

In the case of CS(=O)(=O)c1ccc(-c2oc3cc(O)ccc3c(=O)c2O)cc1 [analogue 3p, 4′-Methylsulfone-3,7-dihydroxyflavone], the “cytotoxicity, in words” value ([2]; A549, MTT, 48 h) is reported as “particularly active” and the “activity … compared with the parent Fisetin” value [2] is reported as “substantially more active”.

In the case of O=c1c(O)c(-c2ccc(Cl)cc2)oc2cc(O)ccc12 [analogue 3g, 4′-Chloro-3,7-dihydroxyflavone], the “cytotoxicity, in words” value ([2]; A549, MTT, 48 h) is reported as “particularly active” and the “activity … compared with the parent Fisetin” value [2] is reported as “substantially more active”.

For COc1ccc(-c2oc3cc(O)ccc3c(=O)c2O)cc1 [analogue 3m, 4′-Methoxy-3,7-dihydroxyflavone], the “activity compared to that predicted by the para-Hammett constant” value ([2]; A549, MTT, 48 h) was “enhanced activity compared to that predicted by the para-Hammett constant”.

With O=c1c(O)c(-c2ccc(Br)cc2)oc2cccc(O)c12 [analogue 3f, 4′-Bromo-3,5-dihydroxyflavone] the “variation in cytotoxicity” value [1] was “little variation in cytotoxicity” and the “variation in cytotoxicity” value [2] was “little variation in cytotoxicity”.

In the case of O=c1c(O)c(-c2ccc(O)c(O)c2)oc2cc(O)cc(O)c12 [quercetin], the “pKa of the 4′-hydroxyl group” value [11] is listed as ~ 9.4 and the “pKa of the 7-hydroxyl group” value ([11]; most acidic position) is listed as ~ 7.3.
